Data on five compounds can be found in article PMC9631755, “Development of AB3-Type Novel Phthalocyanine and Porphyrin Photosensitizers Conjugated with Triphenylphosphonium for Higher Photodynamic Efficacy” (ACS Omega, 2022).

Data set [1] is described as follows: UV-vis absorption, extinction coefficient at 660 nm. It is filed as physicochemical. Conditions: 2 × 10^–6 M in THF. The protocol: In our study, the Lambert–Beer law indicating a linear relationship between absorbance and concentrations was obeyed for all porphyrin and phthalocyanine compounds in dimethylsulfoxide (DMSO) in the whole 2–8 μM concentration measurement range (Figure 2). The UV–vis spectra of macrocyclic compounds were recorded in both DMSO and tetrahydrofuran (THF), solvents in which all compounds are soluble (Figures S13–S19). […] This diverse absorption behavior of complexes comes from their different subunits which are isoindoles and pyrroles in the skeleton of macrocycles for phthalocyanine and porphyrin, respectively.[40],[41]Table 1 summarizes the wavelengths and associated extinction coefficients in Q and Soret (B) bands in DMSO.

Data set [2] relates to A549 cells. Briefly: MTT cell viability of A549 cells, dark and 660 nm light irradiation. The settings on record: for IC50: 24 h. In kind it is cell-based. The protocol:
(§1) A549 and BEAS-2B cells were obtained from ATCC with reference numbers CCL-185 and CRL-9609, respectively. A549 cells were cultured in DMEM (with 2 mM L-glutamine, Gibco, United States), while RPMI 1640 (with 2 mM L-glutamine, Gibco, United States) was used for BEAS-2B cells. Both media were supplemented with 10% fetal bovine serum (FBS) (Gibco, United States), and cells were cultured in an incubator with a humidified atmosphere of 5% CO2 at 37 °C.[24]
(§2) For the evaluation of cytotoxic activity, an MTT assay was employed. Cells were seeded 1 day prior to treatment in 96-well plates at a concentration of 20,000 cells/mL. Followed by overnight incubation, the cells were exposed to LuPcPox(OAc), AB3TPP-Pc, AB3TPP-Por-C4, PP-Por-C6, H2TPP, and ZnPc molecules. All molecules were dispersed in DMSO. The working concentrations of the molecules contain <0.1% (v/v) of DMSO. Time-point assays were performed after 24 and 48 h. The final concentration of MTT was 0.5 mg/mL, and after 3 h incubation, absorbances were measured at 545 nm. The absorbance of the blank group which was the samples containing media with 10% FBS was subtracted from the measurements and cell viability was determined by the following formula.[52] The control group was composed of nontreated cells. Cell viability (%) = (absorbance value of sample/absorbance value of control) × 100.
(§3) The cells seeded at a concentration of 20,000 cells/mL in the 96-well plates were irradiated at 660 nm using an LED light array producing a flux of 0.036 J cm^–2 s^–1 (0.036 W/cm^2). In order to determine the cytotoxic effects of Pcs under light, one group of each cell line was exposed to an LED array for 30 min at room temperature and then returned to the incubator, while another group was incubated in the dark.[24] The delivered red photons on the cells were measured by a calibrated PAR meter (Apogee SQ-520). The temperature of the chamber under continuous light flux was monitored synchronously for ensuring the stability of the conditions.[53]
(§4) The cells were seeded at a concentration of 20,000 cells/mL on 96-well plates and incubated for 24 h. The Pcs were added in 0.1, 2.5, 5, 10, 25, and 50 μM concentrations for evaluating the toxicity with/without light except for LuPcPox(OAc). The LuPcPox(OAc) was added into the wells as 0.01, 0.03, 0.09, 0.25, 0.50, and 1 μM concentration because a concentration over 1.0 μM kills the cells immediately. The Pcs in the cell media were discarded, and a fresh medium was added to the cells to remove noninternalized molecules. The viability of the cells was recorded for 24 and 48 h after the addition of Pcs. The cells were irradiated for 30 min.
(§5) IC50 values of the Pcs were determined by fitting the cell’s viability curve acquired from the spectroscopic data. All the values were obtained by using Origin Software (Figure 7).

Data set [3] in a line: Fluorescence lifetime, TCSPC. In kind it is physicochemical. Conditions: THF, mono-exponential decay. Here is the method:
Luminescence lifetime measurements were performed on a fluorescence spectroscopy Fluorolog-3 (HORIBA Jobin Yvon) system in the single-photon counting (TCSPC) mode. A NanoLED light source (HORIBA Jobin Yvon) of λmax 390 nm was used for 395 nm excitation. All measurements were carried out in 0.2 ab. solutions in THF at room temperature. […] AB3TPP-Pc and LuPcPox(OAc) show a biexponential decay. The short-lived species are due to component features τf of 2.54 ns (responsible for 35.78%) and τf of 2.14 ns (responsible for 32.47%) photons emitted by AB3TPP-Pc and LuPcPox(OAc), respectively. The longer lifetime has a τf of 4.77 ns (assume 64.22%) and 3.11 ns (assume 67.53%) of emission for AB3TPP-Pc and LuPcPox(OAc), respectively.

Data set [4] in a line: Singlet-oxygen quantum yield, direct method (phosphorescence). It is filed as physicochemical. Conditions: for ΦΔ singlet-oxygen quantum yield: THF. The protocol:
For PDT, tumor cells are killed by ROS that is produced by a photosensitizer; thus, the production of ^1O2 by the photosensitizer plays a vitally important role in PDT.[46] To evaluate the photosensitizing properties of novel macrocyclic structures, singlet-oxygen quantum yields have been evaluated by a direct method in THF. Singlet-oxygen phosphorescence spectra for all compounds excited with a xenon-arc source at their respective absorption maxima were recorded by a near-IR-sensitive detector. ZnPc and H2TPP were used as the standard for phthalocyanine and porphyrin derivatives that have singlet oxygen yields of 0.53[47] and 0.58[33],[34] in THF, respectively. Singlet-oxygen phosphorescence spectra of Pc and Por. derivatives in THF at equal absorbance (0.23) were obtained to directly determine ΦΔ (Figures S20 and S21). […] Apparently, AB3TPP-Pc is almost three times as efficient as LuPcPox(OAc) in producing singlet oxygen, matching well with our proposal that the TPP-conjugated phthalocyanine could serve as an ideal candidate for mitochondrial-targeted PDT reagent.

The nature of data set [5]: Fluorescence quantum yield, comparative method. It is filed as physicochemical. Conditions: THF. Here is the method: Excitation spectra in the Q-band region have been obtained by monitoring the fluorescence emission spectra at the indicated wavelength of porphyrins and phthalocyanine compounds. The fluorescence quantum yields (ΦF) of all structures were determined in THF, using a comparative method. The values were 0.009, 0.14, 0.13, and 0.13, for LuPcPox(OAc), AB3TPP-Pc, AB3TPP-Por-C4, and AB3TPP-Por-C6, respectively. The lowest ΦF value 0.009 belongs to LuPcPox(OAc) and is close to the value (0.004) obtained in DMSO in our previous study.[24] This could be the result of the higher atomic number of lutetium in the cavity of phthalocyanine which may facilitate intersystem crossing to its excited triplet state after excitation. However, the difference and purpose of this study from our previous work are to examine whether there will be a change in the fluorescence property with the addition of the mitochondria targeting the TPP group to the structure. We achieved this goal. The ΦF value of AB3TPP-Pc was 0.14, although it was lower than the reference molecule (ZnPc ΦF= 0.25),[43] and the presence of the TPP group on the structure increased the fluorescence efficiency approximately 15 times that of LuPcPox(OAc) ΦF = 0.009. […] The normalized absorption, excitation, and emission spectra for all compounds are shown in Figure 3, and ΦF values are given in Table 2.

Data set [6] relates to BEAS-2B cells. Briefly: MTT cell viability of BEAS-2B cells, dark and 660 nm light irradiation. It is filed as cell-based. The protocol: as §1, §2, §3, §4, §5
The conditions of data set [7]: THF, standard; cited from earlier work.
The conditions of data set [8]: reference substance; cited from earlier work.
The mark [9] stands for this setting: Homo sapiens, A549, light (660 nm, 30 min).
Where [10] appears, read: Homo sapiens, dark, 24 h, read-out: IC50.
[11] abbreviates: Homo sapiens, light (660 nm, 30 min), 24 h, read-out: IC50.

Read-outs that look alike come from different tables or passages of the source.

Take `COc1ccc(-c2c3nc(c(-c4ccc(OC)cc4)c4ccc([nH]4)c(-c4ccc(OCCCC[P+](c5ccccc5)(c5ccccc5)c5ccccc5)cc4)c4nc(c(-c5ccc(OC)cc5)c5ccc2[nH]5)C=C4)C=C3)cc1` [AB3TPP-Por-C4]: the “log ε (660 nm)” value in data set [1] is reported as 3.43. For the same compound, the “increase of toxicity under light compared to the dark (from IC50)” value in data set [2] (A549) was 2 fold. In addition, in data set [2] (A549, dark, up to 48 h), the “cytotoxicity (in words)” value is recorded as “noncytotoxic”. The IC50 in data set [2] (Homo sapiens, A549, dark) is more than 50 µM; in data set [2] (setting [9]), 10.3 µM; in data set [6] (setting [10]), 11.5 µM; in data set [6] (setting [11]), less than 0.1 µM. The compound also had a τF fluorescence lifetime in data set [3] of 8.87 ns. In addition, the “ΦΔ singlet-oxygen quantum yield” value in data set [4] worked out at 0.57. In addition, in data set [5], the “ΦF fluorescence quantum yield” value was 0.13.
As for `COc1ccc(-c2c3nc(c(-c4ccc(OC)cc4)c4ccc([nH]4)c(-c4ccc(OCCCCCC[P+](c5ccccc5)(c5ccccc5)c5ccccc5)cc4)c4nc(c(-c5ccc(OC)cc5)c5ccc2[nH]5)C=C4)C=C3)cc1` [AB3TPP-Por-C6], in data set [1], the “log ε (660 nm)” value was found to be 3.56. The “reduction of cell viability compared to AB3Por-C4 (phototoxicity)” value in data set [2] (A549) is 2 fold. In addition, the “reduction of cell viability compared to H2TPP (phototoxicity)” value in data set [2] (A549) is recorded as 5 fold. Further, the “critical concentration (decrease in viability)” value in data set [2] (A549, after light irradiation, 24 and 48 h) was determined as 2.5 µM. In addition, the IC50 in data set [2] (Homo sapiens, A549, dark) is 24.9 µM; in data set [2] (setting [9]), 3.6 µM; in data set [6] (setting [10]), 10.3 µM; in data set [6] (setting [11]) it was less than 0.1 µM. Also, the τF fluorescence lifetime in data set [3] was found to be 8.91 ns. Moreover, the “ΦΔ singlet-oxygen quantum yield” value in data set [4] was 0.58. Also, the “ΦF fluorescence quantum yield” value in data set [5] amounted to 0.13.
On to `COCCOCCOCCSc1cc2c(cc1SCCOCCOCCOC)-c1nc-2nc2[nH]c(nc3nc(nc4[nH]c(n1)c1cc(SCCOCCOCCOC)c(SCCOCCOCCOC)cc41)-c1cc(SCCOCCOCCOC)c(SCCOCCOCCOC)cc1-3)c1cc(SCCCCCCOCCCCCC[P+](c3ccccc3)(c3ccccc3)c3ccccc3)ccc21` [AB3TPP-Pc], for which the “log ε (660 nm)” value in data set [1] worked out at 4.18. Besides, in data set [4], the “singlet oxygen-producing capacity compared to LuPcPox(OAc)” value is given as approximately 3 times; the “singlet oxygen-producing capacity, more efficient with respect to ZnPc” value is given as 50%; the “ΦΔ singlet-oxygen quantum yield” value turned out to be 0.75. Moreover, in data set [5], the “increase of fluorescence efficiency over LuPcPox(OAc)” value was “approximately 15 times” and the “ΦF fluorescence quantum yield” value is given as 0.14. In data set [6] (dark, 24 and 48 h), this compound gave a cytotoxic concentration of less than 6 µM. Also, the IC50 in data set [6] (light, 48 h, read-out: IC50 (cytotoxic concentration)) was 2.4 µM.
Regarding “Tetraphenylporphyrin [H2TPP, reference compound]”, the IC50 is 19.7 µM in data set [2] (A549, dark); 19.7 µM in data set [2] (A549, light (660 nm, 30 min)); 12.1 µM in data set [6] (dark, 24 h, read-out: IC50); 6.8 µM in data set [6] (light (660 nm, 30 min), 24 h, read-out: IC50). Besides, the τF fluorescence lifetime in data set [3] stood at 10.3 ns. Besides, the “ΦΔ singlet-oxygen quantum yield” value in data set [4] and in data set [7] was 0.58 throughout. The “ΦF fluorescence quantum yield” value in data set [5] and in data set [8] was 0.13 throughout.
As to `[Zn+2].c1ccc2c(c1)-c1nc-2nc2[n-]c(nc3nc([n-]c4nc(n1)-c1ccccc1-4)-c1ccccc1-3)c1ccccc21` [ZnPc, zinc (II)phthalocyanine, reference compound], the τF fluorescence lifetime in data set [3] turned out to be 2.72 ns.
